Values after ≈ are worked out from the molar mass of the structure shown.
Experiments:
[1] = test system: murine cell line L1210; assay: XTT proliferation test, L1210; type: cell-based; settings: Mus musculus, L1210 wild-type cells
From the text: (§1) Substance 1 was investigated for its antiproliferative action in a proliferation test using established tumor cell (D. A. Scuderio et al. Cancer Res. 1988, 48, 4827–4833). The test used determines the cellular dehydrogenase activity and permits a determination of the cell vitality and, indirectly, of the cell count. The cell lines used are the human cervical carcinoma cell line KB/HeLa (ATCC CCL17), the ovarial adeno carcinoma cell line SKOV-3 (ATCC HTB77), the human glioblastoma cell line SF-268 (NCl 503138) and the pulmonary carcinoma cell line NCl-H460 (NCl 503473). Substance 1 was further characterized by testing with regard to multidrug-resistant cell lines as compared with the nonresistant wild-type cell lines. The cell lines tested are the murine cell line L1210, the acute myeloid leukemia cell line LT12 and the resistant lines L1210/mdr and LT12/mdr. Further test systems used are the murine P388 cell line (methylcholanthrene-induced lymphoid neoplasm) and the doxorubicin-resistant P388 cell line.

[2] = test system: pulmonary carcinoma cell line NCl-H460 (NCl 503473); assay: XTT proliferation/cytotoxicity test, NCI-H460; type: cell-based; settings: Homo sapiens, NCI-H460 cells
From the text: (§2) Substance 1 was investigated for its antiproliferative action in a proliferation test using established tumor cell (D. A. Scuderio et al. Cancer Res. 1988, 48, 4827–4833). The test used determines the cellular dehydrogenase activity and permits a determination of the cell vitality and, indirectly, of the cell count. The cell lines used are the human cervical carcinoma cell line KB/HeLa (ATCC CCL17), the ovarial adeno carcinoma cell line SKOV-3 (ATCC HTB77), the human glioblastoma cell line SF-268 (NCl 503138) and the pulmonary carcinoma cell line NCl-H460 (NCl 503473).

[3] = test system: resistant line LT12/mdr; assay: XTT proliferation test, LT12mdr; type: cell-based; settings: Rattus norvegicus, multidrug-resistant LT12mdr cells
From the text: as §1

[4] = test system: acute myeloid leukemia cell line LT12; assay: XTT proliferation test, LT12; type: cell-based; settings: Rattus norvegicus, LT12 wild-type cells
From the text: as §1

[5] = test system: ovarial adeno carcinoma cell line SKOV-3 (ATCC HTB77); assay: XTT proliferation/cytotoxicity test, SK-OV-3; type: cell-based; settings: Homo sapiens, SK-OV-3 cells
From the text: as §2

[6] = test system: doxorubicin-resistant P388 cell line; assay: XTT proliferation test, P388ADR; type: cell-based, murine; settings: Mus musculus, doxorubicin-resistant P388ADR cells
From the text: as §1

[7] = test system: human glioblastoma cell line SF-268 (NCl 503138); assay: XTT proliferation/cytotoxicity test, SF-268; type: cell-based; settings: SF-268 cells
From the text: as §2

[8] = test system: resistant line L1210/mdr (L1210VCR); assay: XTT proliferation test, L1210VCR; type: cell-based, murine; settings: Mus musculus, resistant L1210VCR cells
From the text: as §1

[9] = test system: human cervical carcinoma cell line KB/HeLa (ATCC CCL17); assay: XTT proliferation/cytotoxicity test, KB/HeLa; type: cell-based; settings: KB/HeLa cells
From the text: as §2

[10] = test system: murine P388 cell line (methylcholanthrene-induced lymphoid neoplasm); assay: XTT proliferation test, P388; type: cell-based; settings: Mus musculus, P388 wild-type cells
From the text: as §1

Compound `O=C(C(=O)N(C(=O)c1ccccc1)c1ccc2ncccc2c1)c1cn(Cc2ccc(Cl)cc2)c2ccccc12` [Compound 1, N-{2-[1-(4-Chlorobenzyl)-1H-indol-3-yl]-2-oxoacetyl}-N-quinolin-6-ylbenzamide] has an IC50 [1] of 0.255 µg/mL (≈ 0.469 µM), an IC50 [2] of 0.222 µg/mL (≈ 0.408 µM) and an IC50 [3] of 0.277 µg/mL (≈ 0.509 µM). For the same compound, the IC50 [4] was 0.226 µg/mL (≈ 0.415 µM), the IC50 [5] was 0.139 µg/mL (≈ 0.256 µM) and the IC50 [6] was 0.252 µg/mL (≈ 0.463 µM). For the same compound, the melting point was 213 °C, the IC50 [7] was 0.261 µg/mL (≈ 0.48 µM) and the IC50 [8] was 0.577 µg/mL (≈ 1.06 µM). For the same compound, the IC50 [9] was 0.17 µg/mL (≈ 0.312 µM) and the IC50 [10] was 0.219 µg/mL (≈ 0.403 µM).

Source: patent US7211588B2, “N-substituted indolyl-3-glyoxylamides, their use as medicaments and process for their preparation” (Zentaris GmbH, priority 2003, dated 2007)
